Data set [1] concerns gallbladder. Nature of the data set: Antispastic activity on the gallbladder in mice (egg yolk-induced emptying). The conditions noted are these: for % inhibition of the emptying of the gallbladder: egg yolk; for ED50: Mus musculus, ip, read-out: ID50 (antispastic activity on contraction of the gallbladder induced by egg yolk). It counts as in vivo. As for the experimental part: (§1) Emptying of the gall bladder was induced by a single oral administration of 1 ml of a 30% suspension (weight/volume) of lyophylised egg yolk in a physiological solution.
(§2) As stated above once it has been absorbed egg yoke induces a release of endogenous CCK.
(§3) The antagonistic compounds were administered intraperitoneally (i.p.) 15 minutes before the contractant.
(§4) The % antispastic activity for each dose was calculated from the following formula: [formula] where P1 =the average weight of the gallbladders of the group of animals treated with the drug plus the contractant.
(§5) P2 =the average weight of the gallbladders of the group of animals treated with the contractant only.
(§6) P3 --the average weight of the gallbladders of the control group of animals.
(§7) The results obtained are given in Table 5 where the effects obtained are expressed as the ID50.

Data set [2] has as its system pancreas. Nature of the data set: Protective activity in experimental pancreatitis induced by sodium taurocholate in rats. The conditions noted are these: for ED50: Rattus norvegicus, ip, taurocholate pancreatitis. Type of data set: in vivo. As for the experimental part: The method described by Aho et al. (Scandinavian J. Gastroenterology 15 (1980), 411-16) was followed.
Male rats weighing approximately 250 g were subjected to laparotomy and the pancreas exposed. 0.3 ml of a 6% solution of sodium taurocholate were injected directly into the pancreatic tissue.
The products under examination were administered intraperitoneally (i.p.) 30 minutes before the operation and 3 hours after the operation.
6 hours after the laparotomy, blood was taken from the retro-orbital plexus after anaesthesia with ether, the animals were killed and the pancreas was removed and weighed. The activity of the serum amylase was determined by the Ceska method (Clin. Chim. Acta 26 (1969), 437-444).
The compounds were tested at various doses so as to enable the calculation of an ID50 value, that is the dose (in mg/kg i.p.) which is able to inhibit the toxic effect of the sodium taurocholate by 50%, expressed both as a % inhibition of the increase in weight of the pancreas and as a % inhibition of the increase in serum amylase.

Data set [3] concerns pyloric sphincter. Nature of the data set: Antispastic activity on pyloric contraction induced by CCK in rats. It counts as in vivo. Particulars: for % inhibition of the pyloric contraction: CCK 8 mcg/kg i.p.; for ED50: Rattus norvegicus, ip, i.p. 15 minutes before CCK 8 mcg/kg i.p., read-out: ID50 (antispastic activity on the pyloric contraction induced by CCK). As for the experimental part:
A dose of 8 mcg/kg i.p. of CCK was used, which induced a sub-maximal contraction of the pylorus. The antagonistic compounds were administered (i.p.) 15 minutes before the contractant. 10 minutes after administration of the contractant, the animals were treated per os with 25 ml/kg of H2 O. 5 minutes after the administration the animals were killed, their stomachs removed and the gastric content measured by removal with a syringe.
The % antispastic activity for each dose administered was calculated from the following formula: [formula] where V1 =the volume of gastric content of the group of animals treated with the drug plus the contractant.
V2 =the volume of gastric content of the group of animals treated with the contractant only.
V3 =the volume of gastric content of the control group of animals.
Various doses of the compounds were tested so as to enable the calculation of an ID50 value, that is the dose (in mg/kg i.p.) which is able to inhibit the contractant effect of CCK by 50%.
The results obtained are given in Table 6 where the effects obtained are expressed as the ID50.

Data set [4] in a line: Antispastic activity on the gallbladder in mice (egg yolk-induced emptying). It counts as in vivo. Particulars: mouse, in vivo, ip, 75 mg/kg, read-out: death of the animals treated. On the procedure: as §1, §2, §3, §4, §5, §6, §7
In data set [5] the target is T1, cholecystokinin receptors of ox gallbladder membranes (Bos taurus, UniProt A6QLH2).
T1 sequence (A6QLH2 1-427): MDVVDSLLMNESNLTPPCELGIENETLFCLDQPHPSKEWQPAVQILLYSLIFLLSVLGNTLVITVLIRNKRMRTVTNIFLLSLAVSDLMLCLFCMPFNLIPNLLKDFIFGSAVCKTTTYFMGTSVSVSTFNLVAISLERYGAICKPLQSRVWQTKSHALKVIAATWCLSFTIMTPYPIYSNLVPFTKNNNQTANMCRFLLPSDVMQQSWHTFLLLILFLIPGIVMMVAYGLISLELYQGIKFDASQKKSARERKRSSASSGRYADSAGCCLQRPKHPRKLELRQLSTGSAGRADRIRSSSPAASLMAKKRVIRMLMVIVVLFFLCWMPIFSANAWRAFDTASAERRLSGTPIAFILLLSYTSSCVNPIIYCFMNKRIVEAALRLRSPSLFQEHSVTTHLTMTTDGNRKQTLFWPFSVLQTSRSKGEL
Nature of the data set: Inhibition of binding of (125-I)-Bolton Hunter-CCK-8 to ox gallbladder membranes. The conditions noted are these: 2 h at 25° C., pH 7.4, read-out: IC50 (displacement of 50% of the (125-I)-CCK-8 from the receptors). As for the experimental part: The capacity of some compounds of the invention to inhibit the binding of (125-I)-Bolton Hunter-CCK-8 to the cholecystokinin receptors of ox gallbladder membranes was evaluated by comparison with the displacement induced by cold (unmarked) CCK.
The ox gallbladder cell membranes were prepared by homogenisation with Tris buffer (pH 7.4) and centrifuging of the homogenate at 50,000 gravity for 10 minutes. The membranes were then incubated together with the radioactive tracer and the compounds under study for 2 h at 25° C.
After the supernatant liquid had been discarded, the radioactivity associated with the pellet was determined with a liquid scintillator. The specific binding was determined as the difference between the binding in the absence and in the presence of 10^-6 M CCK-8.

Where [6] appears, read: i.p. 15 minutes before the contractant.
Where [7] appears, read: read-out: ID50, inhibition of pancreas weight increase.
[8] abbreviates: read-out: ID50, inhibition of serum amylase increase.

Like-named read-outs stand apart in the source and are kept apart here.

As to `CCCCCN(CCCCC)C(=O)C(CCC(=O)O)NC(=O)c1ccc2ccccc2c1` (racemic) [Compound 19, D,L-4-(2-naphthoylamino)-5-(di-n-pentylamino)-5-oxopentanoicacid], the figures for the “% inhibition of the emptying of the gallbladder” value in data set [1] (0.03 mg/kg i.p.), in data set [1] (0.1 mg/kg i.p.) and in data set [1] (0.3 mg/kg i.p.) were 12.1%, 41.2% and 83.7%, respectively. Besides, the “contraction of the gallbladder induced by the egg yolk (in words)” value in data set [1] (0.3 mg/kg) is “almost completely blocks the contraction”. Further, the ED50 in data set [1] (setting [6]) is 0.11 mg/kg; in data set [2] (setting [7]), 1.7 mg/kg; in data set [2] (setting [8]), 1.1 mg/kg; in data set [2] (read-out: dose inhibiting the weight increase of the pancreas and the serum amylase increase by 50%), roughly 1.5 mg/kg; in data set [3], 0.05 mg/kg. Further, the “% inhibition amylase increase” value turned out to be 45.3% in data set [2] (1 mg/kg i.p. + taurocholate), 76.7% in data set [2] (3 mg/kg i.p. + taurocholate) and 90.7% in data set [2] (10 mg/kg i.p. + taurocholate). Also, the “% inhibition weight increase (pancreas)” value was found to be 33.3% in data set [2] (1 mg/kg i.p. + taurocholate), 73.3% in data set [2] (3 mg/kg i.p. + taurocholate) and 93.3% in data set [2] (10 mg/kg i.p. + taurocholate). In addition, the “% ratio pancreas weight / animal weight” value in data set [2] (1 mg/kg i.p. + taurocholate) worked out at 0.49%; in data set [2] (3 mg/kg i.p. + taurocholate), 0.43%; in data set [2] (10 mg/kg i.p. + taurocholate), 0.40%. Moreover, the “amylase in the serum” value is 12.7 U/ml in data set [2] (1 mg/kg i.p. + taurocholate), 10.0 U/ml in data set [2] (3 mg/kg i.p. + taurocholate) and 8.8 U/ml in data set [2] (10 mg/kg i.p. + taurocholate). In addition, the “% inhibition of the pyloric contraction” value in data set [3] (0.01 mg/kg i.p.) came to 17.3%; in data set [3] (0.03 mg/kg i.p.), 28.7%; in data set [3] (0.1 mg/kg i.p.), 70.7%; in data set [3] (0.3 mg/kg i.p.), 95.5%.

On to `CCCCCN(CCCCC)C(=O)C(CC(=O)O)NC(=O)c1ccc2ccccc2c1` (stereo not shown) [Compound 26], for which the “% inhibition of the emptying of the gallbladder” value was 17.0% in data set [1] (0.1 mg/kg i.p.), 30.8% in data set [1] (0.3 mg/kg i.p.) and 66.7% in data set [1] (1.0 mg/kg i.p.). Besides, the ED50 was 0.53 mg/kg in data set [1] (setting [6]) and 0.14 mg/kg in data set [3]. The “% inhibition of the pyloric contraction” value amounted to 24.8% in data set [3] (0.03 mg/kg i.p.), 50.0% in data set [3] (0.1 mg/kg i.p.), 57.7% in data set [3] (0.3 mg/kg i.p.) and 78.9% in data set [3] (1.0 mg/kg i.p.).

`CCCCCN(CCCOC)C(=O)C(CCC(=O)O)NC(=O)c1ccc2ccccc2c1` (stereo not shown) [Compound 28]: the “% inhibition of the emptying of the gallbladder” value was 16.5% in data set [1] (0.1 mg/kg i.p.), 36.2% in data set [1] (0.3 mg/kg i.p.) and 58.8% in data set [1] (1.0 mg/kg i.p.). The ED50 in data set [1] (setting [6]) turned out to be 0.62 mg/kg; in data set [2] (setting [7]) it was 9.2 mg/kg; in data set [2] (setting [8]), 4.1 mg/kg; in data set [3], 0.3 mg/kg. Also, the results for the “% inhibition amylase increase” value in data set [2] (3 mg/kg i.p. + taurocholate), in data set [2] (10 mg/kg i.p. + taurocholate) and in data set [2] (20 mg/kg i.p. + taurocholate) were 45.0%, 68.3% and 88.3%, respectively. The “% inhibition weight increase (pancreas)” value in data set [2] (3 mg/kg i.p. + taurocholate) was 29.2%; in data set [2] (10 mg/kg i.p. + taurocholate) it was 50.0%; in data set [2] (20 mg/kg i.p. + taurocholate), 66.6%. Also, the results for the “% ratio pancreas weight / animal weight” value in data set [2] (3 mg/kg i.p. + taurocholate), in data set [2] (10 mg/kg i.p. + taurocholate) and in data set [2] (20 mg/kg i.p. + taurocholate) were 0.52%, 0.47% and 0.43%, respectively. Besides, the “amylase in the serum” value in data set [2] (3 mg/kg i.p. + taurocholate) was 11.0 U/ml; in data set [2] (10 mg/kg i.p. + taurocholate), 9.6 U/ml; in data set [2] (20 mg/kg i.p. + taurocholate), 8.4 U/ml. The “% inhibition of the pyloric contraction” value was 12.5% in data set [3] (0.03 mg/kg i.p.), 29.2% in data set [3] (0.1 mg/kg i.p.), 46.7% in data set [3] (0.3 mg/kg i.p.) and 73.0% in data set [3] (1.0 mg/kg i.p.).

In the case of `COc1ccc(Cc2nccc3cc(OC)c(OC)cc23)cc1OC` [PAPAVERINE, papaverine, reference compound], in data set [4], the mortality was 20%. In addition, the “% inhibition of the emptying of the gallbladder” value in data set [1] (25 mg/kg i.p.) worked out at 0%; in data set [1] (50 mg/kg i.p.) it was 0%; in data set [1] (75 mg/kg i.p.), 26.1%. The “ID50 (antispastic activity on contraction of the gallbladder induced by egg yolk)” value in data set [1] (setting [6]) is reported as “INACTIVE”. Also, the “antispastic activity on the gallbladder (in words)” value in data set [1] (only at the toxic dose of 75 mg/kg) is listed as “slightly active”.

For “CCK-8: cold (unmarked) CCK; cholecystokinin”, in data set [5], the 50% inhibitory concentration (IC50) (in general, the concentration at which inhibition is half-maximal) stood at 0.2 nM.

The values are drawn from patent US4895856A, “Derivatives of 5-pentylamino-5-oxopentanoic and 4-pentylamino-4-oxobutanoic acids with antagonistic activity towards cholecystokinin” (Rotta Research Laboratorium S.p.A., priority 1986, dated 1990).
